The target in experiment [1] is Casein kinase 1 delta (CSKN1D) (Homo sapiens, UniProt P48730). In words: Casein kinase assay, CK1 delta. To be noted: recombinant CSKN1D 5 nM, ATP 10 μM. Format: biochemical. How it is done: (§1) The recombinant protein Casein kinase 1 delta (CSKN1D) was added to the substrate solution in a concentration of 5 nM and gently mixed. Dilution series in of compounds of the present invention in DMSO were added to the reaction mixture, followed after 20 min by addition of a mixture of ATP and ^33P-ATP (specific activity 0.01 μCi/μl final) to a final concentration of 10 μM. Reactions were carried out at 25° C. for 120 min, followed by spotting the reactions onto P81 ion exchange filter paper. Unbound phosphate was removed by washing of the filters in 0.75% phosphoric acid. […] IC50 values and curve fits were obtained using the program Prism® (Graph Pad Software).

Experiment [2] addresses Casein kinase 1 epsilon (CSKN1E) (Homo sapiens, UniProt P49674). Put plainly: Casein kinase assay, CK1 epsilon. Format: biochemical. To be noted: recombinant CSKN1E 30 nM, ATP 10 μM. On the procedure:
as §1
The above assay was also used to determine the inhibitory capacity of the compounds of the present invention on Casein Kinase 1 epsilon, wherein instead of CSKN1D, recombinant protein Casein kinase 1 epsilon (CSKN1E) was added to the substrate solution in a concentration of 30 nM and gently mixed.

Consider 27 molecules from US20170240556A1, “BIFLUORODIOXALANE-AMINO-BENZIMIDAZOLE KINASE INHIBITORS FOR THE TREATMENT OF CANCER, AUTOIMMUNEINFLAMMATION AND CNS DISORDERS” (4SC DISCOVERY GMBH, priority 2012, published 2017).

Casein kinase 1 delta (CSKN1D), sequence (P48730 whole entry): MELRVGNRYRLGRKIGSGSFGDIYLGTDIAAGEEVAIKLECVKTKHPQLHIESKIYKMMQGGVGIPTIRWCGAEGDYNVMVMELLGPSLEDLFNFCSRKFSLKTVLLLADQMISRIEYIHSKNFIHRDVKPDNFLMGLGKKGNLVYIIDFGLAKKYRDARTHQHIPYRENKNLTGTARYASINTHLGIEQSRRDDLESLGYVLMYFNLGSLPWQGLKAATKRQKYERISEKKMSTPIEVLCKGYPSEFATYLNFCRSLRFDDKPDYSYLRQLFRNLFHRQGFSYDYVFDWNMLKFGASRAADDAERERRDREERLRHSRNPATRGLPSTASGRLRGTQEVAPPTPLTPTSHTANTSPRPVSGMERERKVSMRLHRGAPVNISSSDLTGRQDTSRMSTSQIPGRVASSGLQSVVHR
Casein kinase 1 epsilon (CSKN1E), sequence (P49674 whole entry): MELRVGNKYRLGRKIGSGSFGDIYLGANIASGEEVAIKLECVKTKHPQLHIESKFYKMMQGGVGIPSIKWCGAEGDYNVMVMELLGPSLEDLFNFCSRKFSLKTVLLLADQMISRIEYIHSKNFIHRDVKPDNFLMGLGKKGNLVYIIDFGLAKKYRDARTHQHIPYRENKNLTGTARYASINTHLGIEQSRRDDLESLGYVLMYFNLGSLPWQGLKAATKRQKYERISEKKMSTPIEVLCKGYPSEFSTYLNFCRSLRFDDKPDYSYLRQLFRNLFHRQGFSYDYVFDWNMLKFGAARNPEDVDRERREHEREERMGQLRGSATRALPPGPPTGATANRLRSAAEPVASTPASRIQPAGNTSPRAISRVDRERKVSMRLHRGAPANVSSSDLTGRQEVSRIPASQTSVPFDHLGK

The term IC50 denotes the point on the concentration scale where inhibition reaches its midpoint. On to `O=C(Nc1nc2cc3c(cc2[nH]1)OC(F)(F)O3)c1csc(N2CCOCC2)n1` [Compound 37, N-(2,2-difluoro-5H-[1,3]dioxolo[4′,5′:4,5]benzo[1,2-d]imidazol-6-yl)-2-morpholinothiazole-4-carboxamide], for which the IC50 in experiment [1] was < 200 nM; in experiment [2], 200 to 1000 nM.
For `O=C(/C=C/c1ccccc1)Nc1nc(C(=O)Nc2nc3cc4c(cc3[nH]2)OC(F)(F)O4)co1` [Compound 9, 2-cinnamamido-N-(2,2-difluoro-5H-[1,3]dioxolo[4′,5′:4,5]benzo[1,2-d]imidazol-6-yl)oxazole-4-carboxamide] the same measures were > 1000 nM and > 1000 nM.
For `Cn1cccc1C(=O)Nc1nc2cc3c(cc2[nH]1)OC(F)(F)O3` [Compound 20B, N-(2,2-Difluoro-5H-[1,3]dioxolo[4′,5′:4,5]benzo[1,2-d]imidazol-6-yl)-1-methyl-1H-pyrrole-2-carboxamide] the same measures were 200 to 1000 nM and > 1000 nM.
The like results for `O=C(Nc1nc2cc3c(cc2[nH]1)OC(F)(F)O3)c1csc(-n2c(=O)n(CCN3CCOCC3)c3ccccc32)n1` [Compound 98, N-(2,2-difluoro-5H-[1,3]dioxolo[4′,5′:4,5]benzo[1,2-d]imidazol-6-yl)-2-(3-(2-morpholinoethyl)-2-oxo-2,3-dihydro-1H-benzo[d]imidazol-1-yl)thiazole-4-carboxamide] were, in that order, 200 to 1000 nM and > 1000 nM.
For the molecule `Nc1cccc(C(=O)Nc2nc3cc4c(cc3[nH]2)OC(F)(F)O4)c1` [Compound 87, 3-amino-N-(2,2-difluoro-5H-[1,3]dioxolo[4′,5′:4,5]benzo[1,2-d]imidazol-6-yl)benzamide], the IC50 in experiment [1] is < 200 nM; in experiment [2] it was 200 to 1000 nM.
For `O=C(Nc1nc2cc3c(cc2[nH]1)OC(F)(F)O3)c1coc(-c2cccs2)n1` [Compound 136, N-(2,2-difluoro-5H-[1,3]dioxolo[4′,5′:4,5]benzo[1,2-d]imidazol-6-yl)-2-(thiophen-2-yl)oxazole-4-carboxamide] the same measures were < 200 nM and 200 to 1000 nM.
For `O=C(Nc1nc2cc3c(cc2[nH]1)OC(F)(F)O3)c1csc(-c2ccccc2)n1` [Compound 4, N-(2,2-difluoro-5H-[1,3]dioxolo[4′,5′:4,5]benzo[1,2-d]imidazol-6-yl)-2-phenylthiazole-4-carboxamide] the same measures were 200 to 1000 nM and 200 to 1000 nM.
For the molecule `O=C(Nc1nc2cc3c(cc2[nH]1)OC(F)(F)O3)c1csc(-c2ccc3c(c2)CCO3)c1` [Compound 38, N-(2,2-difluoro-5H-[1,3]dioxolo[4′,5′:4,5]benzo[1,2-d]imidazol-6-yl)-5-(2,3-dihydrobenzofuran-5-yl)thiophene-3-carboxamide], the IC50 in experiment [1] was < 200 nM; in experiment [2] it was 200 to 1000 nM.
For `COc1cc(Nc2ncc(C(=O)Nc3nc4cc5c(cc4[nH]3)OC(F)(F)O5)s2)nc(OC)n1` [Compound 99, N-(2,2-difluoro-5H-[1,3]dioxolo[4′,5′:4,5]benzo[1,2-d]imidazol-6-yl)-2-((2,6-dimethoxypyrimidin-4-yl)amino)thiazole-5-carboxamide] the same measures were > 1000 nM and > 1000 nM.
On to `COc1ccc2cc([C@H](C)C(=O)Nc3nc4cc5c(cc4[nH]3)OC(F)(F)O5)ccc2c1` [Compound 133, (S)-N-(2,2-difluoro-5H-[1,3]dioxolo[4′,5′:4,5]benzo[1,2-d]imidazol-6-yl)-2-(6-methoxymaphthalen-2-yl)propanamide], for which the 50% inhibitory concentration (IC50) in experiment [1] and in experiment [2] was < 200 nM each time.
`Nc1sccc1C(=O)Nc1nc2cc3c(cc2[nH]1)OC(F)(F)O3` [Compound 79, 2-amino-N-(2,2-difluoro-5H-[1,3]dioxolo[4′,5′:4,5]benzo[1,2-d]imidazol-6-yl)thiophene-3-carboxamide]: the IC50 in experiment [1] and in experiment [2] was 200 to 1000 nM each time.
In the case of `O=C(Nc1nc2cc3c(cc2[nH]1)OC(F)(F)O3)c1csc(Nc2ccc(OC(F)(F)F)cc2)n1` [Compound 23, N-(2,2-difluoro-5H-[1,3]dioxolo[4′,5′:4,5]benzo[1,2-d]imidazol-6-yl)-2-((4-(trifluoromethoxy)phenyl)amino)thiazole-4-carboxamide], the IC50 in experiment [1] and in experiment [2] was > 1000 nM each time.
With `Cc1nnsc1-c1nc(C(=O)Nc2nc3cc4c(cc3[nH]2)OC(F)(F)O4)cs1` [Compound 134, N-(2,2-difluoro-5H-[1,3]dioxolo[4′,5′:4,5]benzo[1,2-d]imidazol-6-yl)-2-(4-methyl-1,2,3-thiadiazol-5-yl)thiazole-4-carboxamide], the IC50 in experiment [1] and in experiment [2] was < 200 nM throughout.
`O=C(Nc1nc2cc3c(cc2[nH]1)OC(F)(F)O3)c1nnn(-c2cccc(F)c2)c1C(F)(F)F` [Compound 36, N-(2,2-difluoro-5H-[1,3]dioxolo[4′,5′:4,5]benzo[1,2-d]imidazol-6-yl)-1-(3-fluorophenyl)-5-(trifluoromethyl)-1H-1,2,3-triazole-4-carboxamide]: the IC50 in experiment [1] is 200 to 1000 nM; in experiment [2], > 1000 nM.
The like results for `O=C(Nc1nc2cc3c(cc2[nH]1)OC(F)(F)O3)c1coc(NC(=O)c2ccco2)n1` [Compound 10, N-(2,2-difluoro-5H-[1,3]dioxolo[4′,5′:4,5]benzo[1,2-d]imidazol-6-yl)-2-(furan-2-carboxamido)oxazole-4-carboxamide] were, in that order, 200 to 1000 nM and > 1000 nM.
For `O=C(Nc1nc2cc3c(cc2[nH]1)OC(F)(F)O3)c1csc(Br)c1` [Compound 29, 5-bromo-N-(2,2-difluoro-5H-[1,3]dioxolo[4′,5′:4,5]benzo[1,2-d]imidazole-6-yl)-thiophene-3-carboxamide] the same measures were < 200 nM and < 200 nM.
The like results for `O=C(Nc1nc2cc3c(cc2[nH]1)OC(F)(F)O3)c1cc(Cl)ccc1O` [Compound 86, 5-chloro-N-(2,2-difluoro-5H-[1,3]dioxolo[4′,5′:4,5]benzo[1,2-d]imidazol-6-yl)-2-hydroxybenzamide] were, in that order, > 1000 nM and > 1000 nM.
`CS(=O)(=O)c1ccc(C(=O)Nc2nc3cc4c(cc3[nH]2)OC(F)(F)O4)s1` [Compound 85, N-(2,2-difluoro-5H-[1,3]dioxolo[4′,5′:4,5]benzo[1,2-d]imidazol-6-yl)-5-(methylsulfonyl)thiophene-2-carboxamide]: the IC50 in experiment [1] and in experiment [2] was 200 to 1000 nM throughout.
With `O=C(Nc1nc2cc3c(cc2[nH]1)OC(F)(F)O3)c1nc(NC(=O)c2ccccc2OC(F)(F)F)n[nH]1` [Compound 52, N-(2,2-difluoro-5H-[1,3]dioxolo[4′,5′:4,5]benzo[1,2-d]imidazol-6-yl)-3-(2-(trifluoromethoxy)benzamido)-1H-1,2,4-triazole-5-carboxamide], the IC50 in experiment [1] was < 200 nM; in experiment [2] it was 200 to 1000 nM.
In the case of `O=C(Nc1nc2cc3c(cc2[nH]1)OC(F)(F)O3)c1csc(-c2cccc(Cl)c2Cl)n1` [Compound 6, 2-(2,3-dichlorophenyl)-N-(2,2-difluoro-5H-[1,3]dioxolo[4′,5′:4,5]benzo[1,2-d]imidazol-6-yl)thiazole-4-carboxamide], the IC50 in experiment [1] and in experiment [2] was > 1000 nM throughout.
Turning to `O=C(Nc1nc2cc3c(cc2[nH]1)OC(F)(F)O3)c1csc(-c2cscn2)n1` [Compound 135, N-(2,2-difluoro-5H-[1,3]dioxolo[4′,5′:4,5]benzo[1,2-d]imidazol-6-yl)-[2,4-bithiazole]-4-carboxamide], the IC50 in experiment [1] and in experiment [2] was < 200 nM throughout.
For `O=C(Nc1nc2cc3c(cc2[nH]1)OC(F)(F)O3)c1ccncc1` [Compound 18, N-(2,2-difluoro-5H-[1,3]dioxolo[4′,5′:4,5]benzo[1,2-d]imidazol-6-yl)isonicotinamide], the figures for the IC50 in experiment [1] and in experiment [2] were < 200 nM and 200 to 1000 nM, respectively.
For `O=C(Nc1nc2cc3c(cc2[nH]1)OC(F)(F)O3)c1csc2ccccc12` [Compound 31, N-(2,2-difluoro-5H-[1,3]dioxolo[4′,5′:4,5]benzo[1,2-d]imidazol-6-yl)benzo[b]thiophene-3-carboxamide], the IC50 in experiment [1] was < 200 nM; in experiment [2] it was 200 to 1000 nM.
For `O=C(Nc1nc2cc3c(cc2[nH]1)OC(F)(F)O3)c1cn(-c2ccccc2)nc1C(F)(F)F` [Compound 16, N-(2,2-difluoro-5H-[1,3]dioxolo[4′,5′:4,5]benzo[1,2-d]imidazol-6-yl)-1-phenyl-3-(trifluoromethyl)-1H-pyrazole-4-carboxamide] the same measures were 200 to 1000 nM and 200 to 1000 nM.
For `O=C(Nc1nc(C(=O)Nc2nc3cc4c(cc3[nH]2)OC(F)(F)O4)cs1)c1ccc(Cl)cc1` [Compound 8, 2-(4-chlorobenzamido)-N-(2,2-difluoro-5H-[1,3]dioxolo[4′,5′:4,5]benzo[1,2-d]imidazol-6-yl)thiazole-4-carboxamide] the same measures were 200 to 1000 nM and 200 to 1000 nM.
`O=C(Nc1nc2cc3c(cc2[nH]1)OC(F)(F)O3)c1cocn1` [Compound 35, N-(2,2-difluoro-5H-[1,3]dioxolo[4′,5′:4,5]benzo[1,2-d]imidazol-6-yl)-oxazole-4-carboxamide]: the IC50 in experiment [1] was 200 to 1000 nM; in experiment [2], > 1000 nM.
The like results for `O=C(Nc1nc(C(=O)Nc2nc3cc4c(cc3[nH]2)OC(F)(F)O4)ns1)c1ccc(Cl)cc1` [Compound 91] were, in that order, < 200 nM and < 200 nM.
